Measured values reported in patent US7511123B2, “Immuno-interactive fragments of the alpha-C subunit of inhibin” (Prince Henry's Institute of Medical Research, priority 1999, dated 2009).

Experiments:
PO-14 [1] = assay: Solid phase binding of Set 2 peptides to PO-14; set-up: species or system mouse; key: +++; ΦΦΦ strong effect; +, Φ weak effect; conditions: Set 2 biotinylated peptides 24 micromoles/L
Method: (§1) The binding of the 41 biotinylated peptides as set forth in Table 7 (peptide set 2) to the mouse monoclonal antibodies (PO# series) was assessed as follows:
(§2) a) Assay 1 (solid phase assay). The assay was undertaken as outlined in assay 1 of Example 2. Biotinylated peptides (24 micromoles/L) were initially bound to streptavidin-coated plates. Mab (at an appropriate dilution to give a detectable response, 1:1000, 1:10000 dilution of the culture medium) was then added and incubated for 1.5 hr. The amount of bound Mab was determined using horseradish peroxidase-bound anti-mouse IgG serum and enzyme activity detected at 450-630 nm using an ELISA plate reader.

PO-12 [2] = assay: Solid phase binding of Set 2 peptides to PO-12; set-up: species or system mouse; key: +++; ΦΦΦ strong effect; +, Φ weak effect; conditions: Set 2 biotinylated peptides 24 micromoles/L
Method: as §1, §2

PO-12 [3] = assay: RIA of Set 2 peptides with PO-12; assay type: binding, mouse; set-up: key: +++; ΦΦΦ strong effect; +, Φ weak effect; conditions: Set 2 biotinylated peptides 0.8 and 0.08 micromoles/L
Method: (§3) The binding of the 41 biotinylated peptides as set forth in Table 7 (peptide set 2) to the mouse monoclonal antibodies (PO# series) was assessed as follows: b) Assay 2 (radioimrnunoassay, RIA) using iodinated human inhibin A as tracer. Mabs (at an appropriate dilution, see above) were incubated with iodinated human recombinant inhibin in the presence of biotinylated peptides (0.8 and 0.08 micromoles/L final concentration) overnight at room temperature.

As #1989 = assay: RIA (Assay 2): competition with iodinated inhibin for As #1989; assay type: binding, rabbit; conditions: biotinylated peptides; 50% fall in binding of iodinated inhibin
From the text: (§4) This assay was used to determine which peptides compete with iodinated 30 kDa inhibin for As #41, #128 and #1989 (used in the original inhibin RIA, Lapphorn et al., 1989, supra) in a RIA format. This assay identifies those peptides that bind to inhibin-binding antibodies in the antiserum and provides a stricter affinity and specificity assessment in identifying the appropriate epitopes than that found with Assay 1. The competition between peptide and hr-inhibin (used as the standard) was assessed from their ED50 values. The RIA consisted of the competition of iodinated inhibin and either hr-inhibin reference preparation, individual peptides or pools from the 4 peptide regions, with As #41, #128 and in some instances, As #1989. The peptides/inhibin/iodinated inhibin and antisera (at a prescribed dilution) were incubated overnight at 4° C. using standard methodologies. The antibody-bound iodinated inhibin was immunoprecipitated with the addition of an anti-sheep IgG serum raised in goats and the radioactivity was measured in a gamma counter. The concentration of peptide that gives a 50% fall in binding of iodinated inhibin (ED50) was determined and this value was used to give a measure of the affinity of the peptide for the antiserum. This methodology consisted of determining the ED50 of the peptide in the RIA using iodinated human recombinant inhibin as tracer with either As #41, As #128 or As #1989 and graded doses of either hr-inhibin or peptide as described in Example 2.

As #128 [4] = assay: RIA (Assay 2): competition with iodinated inhibin for As #128; assay type: binding, sheep; conditions: biotinylated peptides; 50% fall in binding of iodinated inhibin
From the text: as §4

As #41 = assay: RIA (Assay 2): competition with iodinated inhibin for As #41; assay type: binding, sheep; conditions: biotinylated peptides; 50% fall in binding of iodinated inhibin
From the text: as §4

PO-14 [5] = assay: RIA of Set 2 peptides with PO-14; assay type: binding, mouse; set-up: key: +++; ΦΦΦ strong effect; +, Φ weak effect; conditions: Set 2 biotinylated peptides 0.8 and 0.08 micromoles/L
Method: as §3

As #128 [6] = assay: Competitive 2-site assay (Assay 3), approach (a); assay type: binding, sheep; set-up: key: +++++ major contribution; + minor contribution; conditions: relative contribution
From the text: This assay was developed to establish the relative importance of the individual peptides and peptide pools (identified as epitopes in Assays 1 and 2) in the sandwich antibody format used in the IFMA with As #128 as capture antibody and As #41 as detection antibody. Two approaches (a and b) were considered, Approach (a) explores the cross-reaction of peptides with inhibin for the immobilized As #128 while Approach (b) assesses their cross-reaction with inhibin for As #41.
Approach (a). The biotinylated peptide pools and/or individual peptides at various concentrations, in combination with a fixed concentration of hr-inhibin, were incubated for 2 hours with As #128-coated plates. The plates were then washed to remove any unbound material. Iodinated As #41 was then added to bind to the bound hr-inhibin, the plates washed and the bound radioactivity was measured in a gamma counter. The counts measured were proportional to the amount of hr-inhibin bound to both antisera. The possibility that a peptide contained two epitopes capable of linking As #128 and #41 was assessed in the absence of added hr-inhibin.

As #128 [7] = assay: Solid phase assay (Assay 1): biotinylated peptides binding to As #128; set-up: species or system sheep; key: +++++ major contribution; + minor contribution; conditions: relative contribution
Method: This assay is a broad screen of the binding of the 31 biotinylated peptides to As #41 and #128 as recommended by Chiron Mimotopes.
The biotinylated peptides were initially bound to streptavidin-coated 96-well plates (2 hours at room temperature), antiserum #41 or #128 was then added (2 hours room temperature) to bind to the peptides. Detection of antiserum binding was assessed by a further incubation with an anti-ovine IgG serum labeled with the enzyme, horseradish peroxidase. The enzyme activity was assessed by conversion of a colorless substrate to a colored product that is detected in a spectrophotometer. The enzyme activity measured was proportional to the extent of the binding of the peptides.

R1 = assay: RIA of Set 2 peptides with R1; assay type: binding, mouse; set-up: key: +++; ΦΦΦ strong effect; +, Φ weak effect; conditions: Set 2 biotinylated peptides 0.8 and 0.08 micromoles/L
Method: as §3

PO-14 [8] = assay: RIA of Set 2 peptides with PO-14; assay type: binding, mouse; conditions: Set 2 biotinylated peptides 0.8 and 0.08 micromoles/L
Method: as §3

PO-14 SPB (PO-14 [1]) | PO-12 SPB (PO-12 [2]) | #128 Antibody screen Assay 1 (As #128 [7]) | Substance | PO-12 RIA (PO-12 [3]) | As#1989 ED50 (As #1989) [nmol/mL] | As#128 ED50 (As #128 [4]) [nmol/mL] | As#41 ED50 (As #41) [nmol/mL] | PO-14 RIA (PO-14 [5]) | #128 2-site competitive assay Assay 3 (As #128 [6]) | R1 RIA (R1) | PO-14 RIA (PO-14 [8])
+++ | +++ |  | SGSG GAPPTPAQPYSLLP [Peptide 22] | Φ | >2.5 | 0.156 | 5 | Φ |  |  | 
 |  | + | SGSG ALRLLQRPPEEPAA [Peptide 6] |  | >2.5 | 1.8 | 0.026 |  | + | Φ | 
+++ |  |  | SGSG AALPGTMRPLHVRT [Peptide 27] | Φ | >2.5 | 2 | 5 |  |  |  | ΦΦ
